In test [1] the target is GluA3o (Rattus norvegicus, UniProt P19492). Particulars: Hill coefficient of binding curve.
In test [2] the target is GluA2(R)o (Rattus norvegicus, UniProt P19491, Q607R). To be noted: Hill coefficient of binding curve.
Test [3] concerns the target GluA4o (Rattus norvegicus, UniProt P19493). Particulars: Hill coefficient of binding curve.
Test [4] addresses GluA2i(Q) (Rattus norvegicus, UniProt P19491). The test can be described thus: Ca2+/Fluo-4 assay, GluA2. Particulars: for GluA2i(Q) SAR@: concentration giving significant agonist response >5% of the maximal response induced by (S)-Glu: HEK293, complete concentration-response curve could not be obtained. The test is classed as cell-based.
The target of test [5] is GluA1o (Rattus norvegicus, UniProt P19490). Particulars: Hill coefficient of binding curve.
In test [6] the target is GluA3i (Rattus norvegicus, UniProt P19492). The test can be described thus: Ca2+/Fluo-4 assay, GluA3i-HEK293 cell line. The test is classed as cell-based.
In test [7] the target is GluA1i (Rattus norvegicus, UniProt P19490). The test can be described thus: Ca2+/Fluo-4 assay, GluA1i-HEK293 cell line. The class given is cell-based.
The target of test [8] is GluA4i (Rattus norvegicus, UniProt P19493). The experiment in a line: cell-based. Particulars: GluA4i EC50, HEK293; 10 mM Ca2+ and 100 μM cyclothiazide; tested up to 1000 μM.
Test [9] concerns the target GluN1/2D (Rattus norvegicus, UniProt P35439+Q62645). To be noted: 100 μM, in absence of both Glu and Gly.
Test [10] has as its target GluN1/2C (Rattus norvegicus, UniProt P35439+Q00961). To be noted: 100 μM, in absence of both Glu and Gly.
Test [11] has as its target GluN1/2B (Rattus norvegicus, UniProt P35439+Q00960). Particulars: 100 μM, in absence of both Glu and Gly.

This note sets out measurements from article PMC6508984 (Journal of medicinal chemistry, 2019).

Some results are limits rather than exact numbers.

As usually defined, the EC50 is the concentration giving half of the maximal effect. A low value points to an effect from little substance.

GluA2i(Q), sequence (P19491 22-883 isoform P19491-2 limits assumed): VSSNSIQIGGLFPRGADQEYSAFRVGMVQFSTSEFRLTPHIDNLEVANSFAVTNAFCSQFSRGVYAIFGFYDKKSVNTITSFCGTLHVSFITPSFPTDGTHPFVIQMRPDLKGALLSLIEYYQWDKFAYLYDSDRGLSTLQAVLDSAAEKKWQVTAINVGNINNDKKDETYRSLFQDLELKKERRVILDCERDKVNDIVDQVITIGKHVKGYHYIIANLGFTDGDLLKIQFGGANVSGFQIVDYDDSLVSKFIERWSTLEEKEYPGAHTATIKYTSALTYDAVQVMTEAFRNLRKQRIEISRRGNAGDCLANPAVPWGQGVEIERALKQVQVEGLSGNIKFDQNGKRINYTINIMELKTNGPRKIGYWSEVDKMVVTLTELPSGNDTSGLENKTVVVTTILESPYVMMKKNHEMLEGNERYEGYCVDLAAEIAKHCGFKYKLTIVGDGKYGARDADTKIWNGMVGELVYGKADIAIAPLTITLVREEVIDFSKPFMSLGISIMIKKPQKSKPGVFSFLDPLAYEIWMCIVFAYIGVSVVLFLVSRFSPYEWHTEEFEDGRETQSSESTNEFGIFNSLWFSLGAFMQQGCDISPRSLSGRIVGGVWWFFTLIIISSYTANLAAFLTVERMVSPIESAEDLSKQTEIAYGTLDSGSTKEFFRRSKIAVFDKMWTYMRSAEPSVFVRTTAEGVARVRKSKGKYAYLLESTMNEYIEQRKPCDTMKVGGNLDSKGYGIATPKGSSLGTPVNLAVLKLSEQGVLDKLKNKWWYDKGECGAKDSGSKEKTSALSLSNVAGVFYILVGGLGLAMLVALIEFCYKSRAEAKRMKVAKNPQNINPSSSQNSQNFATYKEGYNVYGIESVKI
GluA1o, sequence (P19490 19-907): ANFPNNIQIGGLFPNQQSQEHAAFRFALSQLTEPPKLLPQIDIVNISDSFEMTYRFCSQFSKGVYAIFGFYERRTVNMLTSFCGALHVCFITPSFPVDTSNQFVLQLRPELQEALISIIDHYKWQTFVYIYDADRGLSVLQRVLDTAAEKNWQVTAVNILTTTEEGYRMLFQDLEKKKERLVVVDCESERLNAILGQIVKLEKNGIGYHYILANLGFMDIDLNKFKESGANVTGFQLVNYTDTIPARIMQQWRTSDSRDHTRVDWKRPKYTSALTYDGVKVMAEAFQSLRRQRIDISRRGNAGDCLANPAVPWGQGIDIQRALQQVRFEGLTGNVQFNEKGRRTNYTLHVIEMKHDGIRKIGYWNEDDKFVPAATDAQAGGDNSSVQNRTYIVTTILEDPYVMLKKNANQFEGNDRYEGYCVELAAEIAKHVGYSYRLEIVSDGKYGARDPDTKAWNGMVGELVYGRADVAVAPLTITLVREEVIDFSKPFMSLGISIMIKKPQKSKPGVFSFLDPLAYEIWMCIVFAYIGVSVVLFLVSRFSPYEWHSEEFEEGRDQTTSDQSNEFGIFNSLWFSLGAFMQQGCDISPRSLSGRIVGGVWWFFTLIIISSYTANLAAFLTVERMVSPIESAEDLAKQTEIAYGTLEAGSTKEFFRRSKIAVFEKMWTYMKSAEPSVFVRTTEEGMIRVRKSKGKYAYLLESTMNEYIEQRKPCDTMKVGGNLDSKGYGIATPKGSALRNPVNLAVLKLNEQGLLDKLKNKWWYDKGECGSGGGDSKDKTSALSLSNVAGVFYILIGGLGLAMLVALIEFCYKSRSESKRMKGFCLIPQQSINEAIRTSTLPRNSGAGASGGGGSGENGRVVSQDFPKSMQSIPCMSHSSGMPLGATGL
GluA3i, sequence (P19492 23-888 isoform P19492-2 limits assumed): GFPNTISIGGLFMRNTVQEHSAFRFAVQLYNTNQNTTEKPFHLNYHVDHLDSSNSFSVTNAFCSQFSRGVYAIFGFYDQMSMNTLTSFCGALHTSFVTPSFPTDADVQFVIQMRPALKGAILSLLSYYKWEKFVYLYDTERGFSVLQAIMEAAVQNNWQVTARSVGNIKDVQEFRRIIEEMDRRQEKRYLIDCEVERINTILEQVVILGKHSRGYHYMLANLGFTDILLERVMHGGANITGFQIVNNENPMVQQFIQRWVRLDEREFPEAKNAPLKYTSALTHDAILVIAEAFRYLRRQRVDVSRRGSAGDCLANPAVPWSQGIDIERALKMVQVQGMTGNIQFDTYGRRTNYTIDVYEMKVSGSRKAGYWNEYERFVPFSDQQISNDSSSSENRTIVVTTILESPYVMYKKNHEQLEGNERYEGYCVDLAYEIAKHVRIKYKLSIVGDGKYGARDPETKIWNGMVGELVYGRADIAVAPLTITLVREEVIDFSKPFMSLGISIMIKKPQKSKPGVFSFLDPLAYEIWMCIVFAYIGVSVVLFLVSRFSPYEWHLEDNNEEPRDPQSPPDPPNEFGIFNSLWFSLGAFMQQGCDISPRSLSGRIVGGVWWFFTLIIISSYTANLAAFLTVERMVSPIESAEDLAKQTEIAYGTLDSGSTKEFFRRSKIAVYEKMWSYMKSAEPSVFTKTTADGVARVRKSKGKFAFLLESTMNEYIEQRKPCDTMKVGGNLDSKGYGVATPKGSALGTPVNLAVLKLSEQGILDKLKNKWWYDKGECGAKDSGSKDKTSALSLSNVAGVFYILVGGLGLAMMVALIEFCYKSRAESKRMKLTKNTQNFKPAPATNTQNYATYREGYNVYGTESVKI
GluA3o, sequence (P19492 23-888): as the sequence (P19492 23-888 isoform P19492-2 limits assumed) above, with T748N, P749A, S758N, I762L, A779S, K780G, D781G, S782G, G783D counted along it
GluA2(R)o, sequence (P19491 22-883 Q607R): as the sequence (P19491 22-883 isoform P19491-2 limits assumed) above, with Q586R, T744N, P745A, S754N, V758L, A775S, K776G, D777G, S778G, G779D counted along it
GluA1i, sequence (P19490 19-907 isoform P19490-2 limits assumed): as the sequence (P19490 19-907) above, with N740G, N750S, L754V, N760S, G772K, G773D, G774S, D775G counted along it
GluN1/2C, sequence (Q00961 20-1237, other chains not shown): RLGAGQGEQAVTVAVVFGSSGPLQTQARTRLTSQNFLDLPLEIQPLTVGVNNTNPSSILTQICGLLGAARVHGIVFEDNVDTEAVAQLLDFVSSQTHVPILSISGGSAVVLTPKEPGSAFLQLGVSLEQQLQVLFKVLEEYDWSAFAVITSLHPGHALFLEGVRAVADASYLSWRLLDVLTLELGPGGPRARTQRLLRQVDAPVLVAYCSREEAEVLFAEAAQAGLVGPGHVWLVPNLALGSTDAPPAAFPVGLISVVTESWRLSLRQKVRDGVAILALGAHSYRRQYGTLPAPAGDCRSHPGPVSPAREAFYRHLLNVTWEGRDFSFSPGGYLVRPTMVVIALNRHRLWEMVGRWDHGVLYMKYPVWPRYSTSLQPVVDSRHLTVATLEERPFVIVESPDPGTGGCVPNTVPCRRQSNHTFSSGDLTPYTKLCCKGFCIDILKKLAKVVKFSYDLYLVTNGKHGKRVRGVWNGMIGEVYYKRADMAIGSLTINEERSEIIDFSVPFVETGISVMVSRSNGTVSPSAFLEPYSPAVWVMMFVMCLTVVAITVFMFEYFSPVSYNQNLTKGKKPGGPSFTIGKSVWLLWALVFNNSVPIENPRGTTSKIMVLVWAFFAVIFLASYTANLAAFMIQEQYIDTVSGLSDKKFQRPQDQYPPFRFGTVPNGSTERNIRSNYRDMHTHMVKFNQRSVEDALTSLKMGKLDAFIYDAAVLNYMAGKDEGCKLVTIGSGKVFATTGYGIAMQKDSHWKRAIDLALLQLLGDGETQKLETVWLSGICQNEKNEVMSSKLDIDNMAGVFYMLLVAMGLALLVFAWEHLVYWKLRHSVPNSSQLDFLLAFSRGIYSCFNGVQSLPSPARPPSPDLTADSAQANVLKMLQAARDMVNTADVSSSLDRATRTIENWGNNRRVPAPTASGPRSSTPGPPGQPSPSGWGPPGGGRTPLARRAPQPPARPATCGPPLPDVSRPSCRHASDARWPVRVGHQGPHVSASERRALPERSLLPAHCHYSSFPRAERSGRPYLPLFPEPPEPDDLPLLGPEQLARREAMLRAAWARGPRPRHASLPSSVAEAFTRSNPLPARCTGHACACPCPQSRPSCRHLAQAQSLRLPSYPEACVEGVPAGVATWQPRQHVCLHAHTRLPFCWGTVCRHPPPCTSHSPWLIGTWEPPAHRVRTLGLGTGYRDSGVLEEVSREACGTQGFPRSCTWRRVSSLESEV
GluA4o, sequence (P19493 21-902): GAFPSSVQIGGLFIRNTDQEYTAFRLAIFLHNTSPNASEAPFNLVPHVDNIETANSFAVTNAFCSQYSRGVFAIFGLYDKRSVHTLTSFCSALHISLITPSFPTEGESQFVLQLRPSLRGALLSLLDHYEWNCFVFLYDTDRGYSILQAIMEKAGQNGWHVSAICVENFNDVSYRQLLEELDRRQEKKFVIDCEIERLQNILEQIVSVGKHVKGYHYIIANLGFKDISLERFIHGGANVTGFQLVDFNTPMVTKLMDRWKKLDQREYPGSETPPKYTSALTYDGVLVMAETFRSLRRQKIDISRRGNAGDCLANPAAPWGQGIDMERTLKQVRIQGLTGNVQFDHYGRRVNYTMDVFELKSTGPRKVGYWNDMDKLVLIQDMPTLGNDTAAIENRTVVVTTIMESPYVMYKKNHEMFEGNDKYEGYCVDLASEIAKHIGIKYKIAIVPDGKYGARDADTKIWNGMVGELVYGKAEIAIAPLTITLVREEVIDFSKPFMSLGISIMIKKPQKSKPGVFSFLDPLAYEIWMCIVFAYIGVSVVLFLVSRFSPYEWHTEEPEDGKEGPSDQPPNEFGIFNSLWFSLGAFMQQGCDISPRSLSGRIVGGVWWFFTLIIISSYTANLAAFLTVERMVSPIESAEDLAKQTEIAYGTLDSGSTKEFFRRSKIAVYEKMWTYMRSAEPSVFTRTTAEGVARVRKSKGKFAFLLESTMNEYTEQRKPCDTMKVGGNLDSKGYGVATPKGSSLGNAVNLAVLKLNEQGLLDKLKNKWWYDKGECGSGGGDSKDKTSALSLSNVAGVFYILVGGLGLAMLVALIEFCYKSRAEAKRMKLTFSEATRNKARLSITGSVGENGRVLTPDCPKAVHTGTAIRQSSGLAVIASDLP

With `Cn1nnc(O)c1CC(N)C(=O)O` (racemic) [Compound 6a, (RS) 2-Amino-3-(4-hydroxy-1-methyl-1H-1,2,3-triazol-5-yl)propanoic acid], the “GluA3o nH” value in test [1] is on record as 0.95 ± 0.25. Also, the “GluA2(R)o nH” value in test [2] is on record as 0.95 ± 0.09. Besides, the “GluA4o nH” value in test [3] was determined as 0.89 ± 0.07. Besides, the “GluA2i(Q) SAR@: concentration giving significant agonist response >5% of the maximal response induced by (S)-Glu” value in test [4] was “SAR@ 300 μM”. The “GluA1o nH” value in test [5] came out at 1.02 ± 0.17.
On to `CCCn1nnc(O)c1CC(N)C(=O)O` (racemic) [Compound 6c, (RS) 2-Amino-3-(4-hydroxy-1-propyl-1H-1,2,3-triazol-5-yl)propanoic acid], for which the “GluA3o nH” value in test [1] was 0.75 ± 0.09. Besides, the “GluA2(R)o nH” value in test [2] is listed as 1.55 ± 0.65. In addition, the “GluA2i(Q) SAR@: concentration giving significant agonist response >5% of the maximal response induced by (S)-Glu” value in test [4] was “SAR@ 1000 μM”. The “GluA1o nH” value in [5] amounted to 0.81 ± 0.07.
Turning to `CCn1nc(O)c(CC(N)C(=O)O)n1` (racemic) [Compound 7b, (RS) 2-Amino-3-(2-ethyl-5-hydroxy-2H-1,2,3-triazol-4-yl)propanoic acid], the EC50 in [6], in test [7], in test [4] and in test [8] was more than 1000 µM in each case.
For the compound `CCCn1nc(O)c(CC(N)C(=O)O)n1` (racemic) [Compound 7c, (RS) 2-Amino-3-(5-hydroxy-2-propyl-2H-1,2,3-triazol-4-yl)propanoic acid], the EC50 in test [6], in test [7] and in test [4] was more than 1000 µM in each case.
As for `Cn1nc(O)c(C(N)C(=O)O)n1` (racemic) [Compound 8, (RS) 2-Amino-2-(5-hydroxy-2-methyl-2H-1,2,3-triazol-4-yl)acetic acid], the “Activation by compound alone” value in test [9], in test [10] and in [11] was “able to activate” each time.
